Results as given in patent publication US12421253B2 (Mirati Therapeutics, Inc., priority 2020, dated 2025).

Key:
KRas^G13D = KRas^G13D (Homo sapiens, UniProt P01116, G13D); experiment: biochemical
KRas^G12S = molecular target: T1, KRas^G12S (Homo sapiens, UniProt P01116, G12S); experiment: KRas binding assay (TR-FRET displacement of Cy5 labelled tracer)
T1 construct: […]; biotin (biotinylated); purchased Accelegan Inc

KRas^G12D = molecular target: T2, KRas^G12D (Homo sapiens, UniProt P01116, G12D); experiment: as above
T2 construct: […]; biotin (biotinylated); purchased Accelegan Inc
T2 sequence (P01116 1-169 isoform P01116-2 G12D): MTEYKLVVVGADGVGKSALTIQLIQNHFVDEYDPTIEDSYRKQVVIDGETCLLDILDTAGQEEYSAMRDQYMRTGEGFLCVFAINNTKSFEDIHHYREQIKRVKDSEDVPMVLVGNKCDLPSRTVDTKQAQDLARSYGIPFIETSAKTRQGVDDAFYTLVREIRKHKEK

KRas^Q61H = KRas^Q61H (Homo sapiens, UniProt P01116, Q61H); experiment: biochemical
KRas^Q61H, sequence (P01116 1-169 isoform P01116-2 Q61H): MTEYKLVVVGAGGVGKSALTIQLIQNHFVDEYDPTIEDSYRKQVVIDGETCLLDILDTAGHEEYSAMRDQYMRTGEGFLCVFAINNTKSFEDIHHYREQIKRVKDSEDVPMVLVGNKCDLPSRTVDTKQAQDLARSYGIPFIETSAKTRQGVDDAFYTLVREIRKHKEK

KRas^WT = molecular target: T3, KRas^WT (Homo sapiens, UniProt P01116); experiment: KRas binding assay (TR-FRET displacement of Cy5 labelled tracer)
T3 construct: […]; biotin (biotinylated); purchased Accelegan Inc
T3 sequence (P01116 1-169 isoform P01116-2): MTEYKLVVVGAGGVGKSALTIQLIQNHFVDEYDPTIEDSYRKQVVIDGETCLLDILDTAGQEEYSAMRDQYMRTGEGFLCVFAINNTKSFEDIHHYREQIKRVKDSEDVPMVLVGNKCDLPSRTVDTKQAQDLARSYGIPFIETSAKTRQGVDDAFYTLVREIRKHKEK

KRas^G12R = molecular target: T4, KRas^G12R (Homo sapiens, UniProt P01116, G12R); experiment: as above
T4 construct: […]; biotin (biotinylated); purchased Accelegan Inc
T4 sequence (P01116 1-169 isoform P01116-2 G12R): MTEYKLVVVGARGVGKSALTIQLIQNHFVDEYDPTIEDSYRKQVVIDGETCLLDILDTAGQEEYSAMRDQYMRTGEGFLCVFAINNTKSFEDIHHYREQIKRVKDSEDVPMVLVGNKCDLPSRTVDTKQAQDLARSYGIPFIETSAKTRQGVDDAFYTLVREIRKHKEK

KRas^G12V = molecular target: T5, KRas^G12V (Homo sapiens, UniProt P01116, G12V); experiment: as above
T5 construct: […]; biotin (biotinylated); purchased Accelegan Inc
T5 sequence (P01116 1-169 isoform P01116-2 G12V): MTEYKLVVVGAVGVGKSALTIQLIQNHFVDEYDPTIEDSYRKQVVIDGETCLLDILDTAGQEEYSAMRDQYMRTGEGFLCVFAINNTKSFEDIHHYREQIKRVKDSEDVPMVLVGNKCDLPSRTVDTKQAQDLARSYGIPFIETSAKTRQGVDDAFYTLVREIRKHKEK

KRas^G12C = KRas^G12C (Homo sapiens, UniProt P01116, G12C); experiment: biochemical
KRas^G12C, sequence (P01116 1-169 isoform P01116-2 G12C): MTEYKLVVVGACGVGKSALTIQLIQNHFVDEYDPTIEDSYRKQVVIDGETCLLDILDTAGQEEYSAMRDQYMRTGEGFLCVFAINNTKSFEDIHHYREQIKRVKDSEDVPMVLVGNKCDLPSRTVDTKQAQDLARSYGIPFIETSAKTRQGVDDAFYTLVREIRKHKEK

KRas^G12A = molecular target: T6, KRas^G12A (Homo sapiens, UniProt P01116, G12A); experiment: KRas binding assay (TR-FRET displacement of Cy5 labelled tracer)
T6 construct: […]; biotin (biotinylated); purchased Accelegan Inc
T6 sequence (P01116 1-169 isoform P01116-2 G12A): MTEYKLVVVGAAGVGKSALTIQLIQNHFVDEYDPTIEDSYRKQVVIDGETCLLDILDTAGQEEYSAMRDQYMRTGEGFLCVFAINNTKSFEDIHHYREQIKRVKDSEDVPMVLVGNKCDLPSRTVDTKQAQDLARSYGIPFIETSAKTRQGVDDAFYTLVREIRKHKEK

KRas^G13D, sequence (P01116 1-169 isoform P01116-2 G13D): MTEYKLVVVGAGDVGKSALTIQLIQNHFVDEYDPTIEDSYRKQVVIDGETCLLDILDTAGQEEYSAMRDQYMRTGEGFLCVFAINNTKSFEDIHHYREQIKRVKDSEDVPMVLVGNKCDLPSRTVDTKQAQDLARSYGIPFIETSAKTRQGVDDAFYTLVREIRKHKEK
T1 sequence (P01116 1-169 isoform P01116-2 G12S): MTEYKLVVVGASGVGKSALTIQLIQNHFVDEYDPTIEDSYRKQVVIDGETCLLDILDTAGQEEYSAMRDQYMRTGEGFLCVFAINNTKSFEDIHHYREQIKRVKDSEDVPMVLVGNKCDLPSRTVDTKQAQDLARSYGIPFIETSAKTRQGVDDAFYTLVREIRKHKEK

Row | IC50 (KRas^G13D) | IC50 (KRas^G12S) | IC50 (KRas^G12D) | IC50 (KRas^Q61H) | IC50 (KRas^WT) | IC50 (KRas^G12R) | IC50 (KRas^G12V) | IC50 (KRas^G12C) | IC50 (KRas^G12A) | Compound
1 | 6710 nM | 8070 nM | 14200 nM | 6550 nM | 5920 nM | 7470 nM | 4340 nM | 3870 nM | 8670 nM | CCc1cccc2cccc(N3CCc4c(nc(OCC56CCCN5CCC6)nc4NCCS(=O)(=O)N=S(C)(C)=O)C3)c12 [Example 165, N-(dimethyl(oxo)-16-sulfaneylidene)-2-((7-(8-ethylnaphthalen-1-yl)-2-((tetrahydro-1H-pyrrolizin-7a(5H)-yl)methoxy)-5,6,7,8-tetrahydropyrido[3,4-d]pyrimidin-4-yl)amino)ethane-1-sulfonamide]
2 | 3280 nM | 1990 nM | 3390 nM | 2300 nM | 1560 nM | 1630 nM | 868 nM | 969 nM | 1540 nM | CCc1cccc2cccc(N3CCc4c(nc(OCC56CCCN5CCC6)nc4NCc4nnc(N)o4)C3)c12 [Example 136, 5-(((7-(8-ethylnaphthalen-1-yl)-2-((tetrahydro-1H-pyrrolizin-7a(5H)-yl)methoxy)-5,6,7,8-tetrahydropyrido[3,4-d]pyrimidin-4-yl)amino)methyl)-1,3,4-oxadiazol-2-amine]
3 | 7150 nM | 2900 nM | 7620 nM | 7800 nM | 7310 nM | 4350 nM | 1350 nM | 3070 nM | 3240 nM | CCc1cccc2cccc(N3CCc4c(nc(OCC56CCCN5CCC6)nc4NC[C@H]4CCC(=O)N4)C3)c12 [Example 148, (R)-5-(((7-(8-ethylnaphthalen-1-yl)-2-((tetrahydro-1H-pyrrolizin-7a(5H)-yl)methoxy)-5,6,7,8-tetrahydropyrido[3,4-d]pyrimidin-4-yl)amino)methyl)pyrrolidin-2-one]
4 | 247 nM | 342 nM | 532 nM | 325 nM | 232 nM | 279 nM | 295 nM | 348 nM | 303 nM | CCc1cccc2cccc(N3CCc4c(nc(OCC56CCCN5CCC6)nc4N4CCC(O)CC(C)C4)C3)c12 (stereo not drawn) [Example 92, 1-(7-(8-ethylnaphthalen-1-yl)-2-((tetrahydro-1H-pyrrolizin-7a(5H)-yl)methoxy)-5,6,7,8-tetrahydropyrido[3,4-d]pyrimidin-4-yl)-6-methylazepan-4-ol]
5 | 673 nM | 383 nM | 1210 nM | 740 nM | 515 nM | 400 nM | 546 nM | 355 nM | 487 nM | CCc1cccc2cccc(N3CCc4c(nc(OCC56CCCN5CCC6)nc4N4CC(O)C(O)C(O)C4)C3)c12 (stereo not drawn) [Example 101, 1-(7-(8-ethylnaphthalen-1-yl)-2-((tetrahydro-1H-pyrrolizin-7a(5H)-yl)methoxy)-5,6,7,8-tetrahydropyrido[3,4-d]pyrimidin-4-yl)piperidine-3,4,5-triol]
6 | 1360 nM | 1350 nM | 2120 nM | 1480 nM | 1410 nM | 774 nM | 1260 nM | 1070 nM | 1200 nM | CCc1cccc2cccc(N3CCc4c(nc(OCC56CCCN5CCC6)nc4N4CCCC(C(C)O)C4)C3)c12 (stereo not drawn) [Example 131, 1-(1-(7-(8-ethylnaphthalen-1-yl)-2-((tetrahydro-1H-pyrrolizin-7a(5H)-yl)methoxy)-5,6,7,8-tetrahydropyrido[3,4-d]pyrimidin-4-yl)piperidin-3-yl)ethan-1-ol]
7 | 254 nM | 953 nM | 4700 nM | 343 nM | 255 nM | 724 nM | 990 nM | 656 nM | 655 nM | CCc1cccc2cccc(N3CCc4c(nc(OCC56CCCN5CCC6)nc4N4CCCN(C(N)=O)CC4)C3)c12 [Example 95, 4-(7-(8-ethylnaphthalen-1-yl)-2-((tetrahydro-1H-pyrrolizin-7a(5H)-yl)methoxy)-5,6,7,8-tetrahydropyrido[3,4-d]pyrimidin-4-yl)-1,4-diazepane-1-carboxamide]
8 | 336 nM | 520 nM | 1160 nM | 400 nM | 321 nM | 499 nM | 567 nM | 558 nM | 484 nM | CCc1cccc2cccc(N3CCc4c(nc(OCC56CCCN5CCC6)nc4N4C[C@@H](C)C[C@H](O)C4)C3)c12 [Example 97, (3S,5S)-1-(7-(8-ethylnaphthalen-1-yl)-2-((tetrahydro-1H-pyrrolizin-7a(5H)-yl)methoxy)-5,6,7,8-tetrahydropyrido[3,4-d]pyrimidin-4-yl)-5-methylpiperidin-3-ol]
9 | 2010 nM | 2480 nM | 6380 nM | 2100 nM | 1810 nM | 1320 nM | 4210 nM | 573 nM | 1530 nM | CCc1cccc2cccc(N3CCc4c(nc(OCC56CCCN5CCC6)nc4N4CCCC(c5nc(C)c(C)[nH]5)C4)C3)c12 (stereo not drawn) [Example 120, 4-(3-(4,5-dimethyl-1H-imidazol-2-yl)piperidin-1-yl)-7-(8-ethylnaphthalen-1-yl)-2-((tetrahydro-1H-pyrrolizin-7a(5H)-yl)methoxy)-5,6,7,8-tetrahydropyrido[3,4-d]pyrimidine]
10 | 1160 nM | 1300 nM | 5070 nM | 950 nM | 772 nM | 1230 nM | 1260 nM | 1100 nM | 1460 nM | CCc1cccc2cccc(N3CCc4c(nc(OCC56CCCN5CCC6)nc4N4CCOC5(CCSC5)C4)C3)c12 (stereo not drawn) [Example 130, 9-(7-(8-ethylnaphthalen-1-yl)-2-((tetrahydro-1H-pyrrolizin-7a(5H)-yl)methoxy)-5,6,7,8-tetrahydropyrido[3,4-d]pyrimidin-4-yl)-6-oxa-2-thia-9-azaspiro[4.5]decane]
11 | 213 nM | 68 nM | 121 nM | 260 nM | 200 nM | 285 nM | 130 nM | 211 nM | 428 nM | Cc1cccc2cccc(N3CCc4c(nc(OCC56CCCN5CCC6)nc4N4CC5C(=O)NC(=O)C5C4)C3)c12 (stereo not drawn) [Example 80, 5-(2-((hexahydro-1H-pyrrolizin-7a-yl)methoxy)-7-(8-methylnaphthalen-1-yl)-5,6,7,8-tetrahydropyrido[3,4-d]pyrimidin-4-yl)tetrahydropyrrolo[3,4-c]pyrrole-1,3(2H,3aH)-dione]
12 | 1350 nM | 1080 nM | 3240 nM | 1470 nM | 1660 nM | 1140 nM | 1470 nM | 1030 nM | 948 nM | CCc1cccc2cccc(N3CCc4c(nc(OCC56CCCN5CCC6)nc4N4CCCC(N5CCCC5=O)C4)C3)c12 (stereo not drawn) [Example 137, 1-(1-(7-(8-ethylnaphthalen-1-yl)-2-((tetrahydro-1H-pyrrolizin-7a(5H)-yl)methoxy)-5,6,7,8-tetrahydropyrido[3,4-d]pyrimidin-4-yl)piperidin-3-yl)pyrrolidin-2-one]
13 | 544 nM | 486 nM | 602 nM | 513 nM | 411 nM | 546 nM | 404 nM | 417 nM | 440 nM | CCc1cccc2cccc(N3CCc4c(nc(OCC56CCCN5CCC6)nc4N4C[C@@H](C)C[C@@H](O)C4)C3)c12 [Example 111, (3R,5S)-1-(7-(8-ethylnaphthalen-1-yl)-2-((tetrahydro-1H-pyrrolizin-7a(5H)-yl)methoxy)-5,6,7,8-tetrahydropyrido[3,4-d]pyrimidin-4-yl)-5-methylpiperidin-3-ol]
14 | 16400 nM | 16400 nM | 25000 nM | 17000 nM | 17000 nM | 11900 nM | 5870 nM | 15100 nM | 27900 nM | CCc1cccc2cccc(N3CCc4c(nc(OCC56CCCN5CCC6)nc4NC4CC5CC5C4)C3)c12 (stereo not drawn) [Example 170, N-(bicyclo[3.1.0]hexan-3-yl)-7-(8-ethylnaphthalen-1-yl)-2-((tetrahydro-1H-pyrrolizin-7a(5H)-yl)methoxy)-5,6,7,8-tetrahydropyrido[3,4-d]pyrimidin-4-amine]
15 | 3860 nM | 1160 nM | 1160 nM | 4550 nM | 2900 nM | 744 nM | 1100 nM | 893 nM | 2080 nM | CCc1cccc2cccc(N3CCc4c(nc(OCC56CCCN5CCC6)nc4N4CCCc5ncccc5C4)C3)c12 [Example 55, 6-(7-(8-ethylnaphthalen-1-yl)-2-((hexahydro-1H-pyrrolizin-7a-yl)methoxy)-5,6,7,8-tetrahydropyrido[3,4-d]pyrimidin-4-yl)-6,7,8,9-tetrahydro-5H-pyrido[3,2-c]azepine]
16 | 118 nM | 171 nM | 256 nM | 135 nM | 119 nM | 233 nM | 112 nM | 173 nM | 145 nM | CCc1cccc2cccc(N3CCc4c(nc(OCC56CCCN5CCC6)nc4N4CCCCCC(S(C)(=O)=O)C4)C3)c12 (stereo not drawn) [Example 14, 7-(8-ethylnaphthalen-1-yl)-4-(3-(methylsulfonyl)azocan-1-yl)-2-((tetrahydro-1H-pyrrolizin-7a(5H)-yl)methoxy)-5,6,7,8-tetrahydropyrido[3,4-d]pyrimidine]
